Experimental data from ChEMBL document CHEMBL1149623, “Identification of antibacterial and antiviral activities of novel fused 1,2,4-triazine esters” (2007).

What was measured:
HEK293 [1] = assay: Cytotoxicity against human HEK293 cells at 10 ug/mL after 72 hrs by MTT assay; format: functional
HEK293 [2] = assay: Cytotoxicity against human HEK293 cells at 25 ug/mL after 72 hrs by MTT assay; format: functional
[3] = Cytotoxicity against monkey GMK cells at 200 ug/mL after 96 hrs by MTT assay; format: functional, Chlorocebus aethiops
[4] = Cytotoxicity against monkey GMK cells at 2.5 ug/mL after 96 hrs by MTT assay; format: functional, Chlorocebus aethiops
[5] = Cytotoxicity against monkey GMK cells at 25 ug/mL after 96 hrs by MTT assay; format: functional, Chlorocebus aethiops
HEK293 [6] = assay: Cytotoxicity against human HEK293 cells at 10 ug/mL after 120 hrs by MTT assay; format: functional
HEK293 [7] = assay: Cytotoxicity against human HEK293 cells at 5 ug/mL after 48 hrs by MTT assay; format: functional
[8] = Cytotoxicity against monkey GMK cells at 50 ug/mL after 120 hrs by MTT assay; format: functional, Chlorocebus aethiops
[9] = Cytotoxicity against monkey GMK cells at 200 ug/mL after 120 hrs by MTT assay; format: functional, Chlorocebus aethiops
HEK293 [10] = assay: Cytotoxicity against human HEK293 cells at 200 ug/mL after 120 hrs by MTT assay; format: functional
HEK293 [11] = assay: Cytotoxicity against human HEK293 cells at 2.5 ug/mL after 120 hrs by MTT assay; format: functional
[12] = Cytotoxicity against monkey GMK cells at 2.5 ug/mL after 24 hrs by MTT assay; format: functional, Chlorocebus aethiops
[13] = Cytotoxicity against monkey GMK cells at 2.5 ug/mL after 120 hrs by MTT assay; format: functional, Chlorocebus aethiops
[14] = Cytotoxicity against monkey GMK cells at 25 ug/mL after 72 hrs by MTT assay; format: functional, Chlorocebus aethiops
[15] = Cytotoxicity against monkey GMK cells at 100 ug/mL after 120 hrs by MTT assay; format: functional, Chlorocebus aethiops
HEK293 [16] = assay: Cytotoxicity against human HEK293 cells at 100 ug/mL after 48 hrs by MTT assay; format: functional
HEK293 [17] = assay: Cytotoxicity against human HEK293 cells at 200 ug/mL after 24 hrs by MTT assay; format: functional
[18] = Cytotoxicity against monkey GMK cells at 50 ug/mL after 96 hrs by MTT assay; format: functional, Chlorocebus aethiops
Human adenovirus 5 [19] = assay: Antiviral activity against Human adenovirus 5 in HEK293 cells assessed as virus titre at 100 ug/mL after 1 hr; format: functional
HEK293 [20] = assay: Cytotoxicity against human HEK293 cells at 200 ug/mL after 96 hrs by MTT assay; format: functional
HEK293 [21] = assay: Cytotoxicity against human HEK293 cells at 10 ug/mL after 96 hrs by MTT assay; format: functional
[22] = Cytotoxicity against monkey GMK cells at 200 ug/mL after 48 hrs by MTT assay; format: functional, Chlorocebus aethiops
[23] = Cytotoxicity against monkey GMK cells at 2.5 ug/mL after 48 hrs by MTT assay; format: functional, Chlorocebus aethiops
HEK293 [24] = assay: Cytotoxicity against human HEK293 cells at 25 ug/mL after 48 hrs by MTT assay; format: functional
HEK293 [25] = assay: Cytotoxicity against human HEK293 cells at 10 ug/mL after 24 hrs by MTT assay; format: functional
[26] = Cytotoxicity against monkey GMK cells at 50 ug/mL after 48 hrs by MTT assay; format: functional, Chlorocebus aethiops
Echovirus E9 [27] = assay: Antiviral activity against Human echovirus 9 in GMK cells assessed as virus titre at 200 ug/mL after 1 hr; format: functional
HEK293 [28] = assay: Cytotoxicity against human HEK293 cells at 10 ug/mL after 48 hrs by MTT assay; format: functional
[29] = Cytotoxicity against monkey GMK cells at 50 ug/mL after 72 hrs by MTT assay; format: functional, Chlorocebus aethiops
[30] = Cytotoxicity against monkey GMK cells at 100 ug/mL after 24 hrs by MTT assay; format: functional, Chlorocebus aethiops
HEK293 [31] = assay: Cytotoxicity against human HEK293 cells at 5 ug/mL after 96 hrs by MTT assay; format: functional
[32] = Cytotoxicity against monkey GMK cells at 5 ug/mL after 48 hrs by MTT assay; format: functional, Chlorocebus aethiops
HEK293 [33] = assay: Cytotoxicity against human HEK293 cells at 50 ug/mL after 48 hrs by MTT assay; format: functional
HEK293 [34] = assay: Cytotoxicity against human HEK293 cells at 2.5 ug/mL after 48 hrs by MTT assay; format: functional
[35] = Cytotoxicity against monkey GMK cells at 25 ug/mL after 24 hrs by MTT assay; format: functional, Chlorocebus aethiops
[36] = Cytotoxicity against monkey GMK cells at 5 ug/mL after 24 hrs by MTT assay; format: functional, Chlorocebus aethiops
HEK293 [37] = assay: Cytotoxicity against human HEK293 cells at 5 ug/mL after 120 hrs by MTT assay; format: functional
HEK293 [38] = assay: Cytotoxicity against human HEK293 cells at 50 ug/mL after 96 hrs by MTT assay; format: functional
HEK293 [39] = assay: Cytotoxicity against human HEK293 cells at 5 ug/mL after 24 hrs by MTT assay; format: functional
[40] = Cytotoxicity against monkey GMK cells at 10 ug/mL after 120 hrs by MTT assay; format: functional, Chlorocebus aethiops
[41] = Cytotoxicity against monkey GMK cells at 25 ug/mL after 120 hrs by MTT assay; format: functional, Chlorocebus aethiops
HEK293 [42] = assay: Cytotoxicity against human HEK293 cells at 200 ug/mL after 72 hrs by MTT assay; format: functional
HEK293 [43] = assay: Cytotoxicity against human HEK293 cells at 2.5 ug/mL after 24 hrs by MTT assay; format: functional
[44] = Cytotoxicity against monkey GMK cells at 5 ug/mL after 120 hrs by MTT assay; format: functional, Chlorocebus aethiops
HEK293 [45] = assay: Cytotoxicity against human HEK293 cells at 2.5 ug/mL after 96 hrs by MTT assay; format: functional
[46] = Cytotoxicity against monkey GMK cells at 100 ug/mL after 72 hrs by MTT assay; format: functional, Chlorocebus aethiops
[47] = Cytotoxicity against monkey GMK cells at 10 ug/mL after 48 hrs by MTT assay; format: functional, Chlorocebus aethiops
HEK293 [48] = assay: Cytotoxicity against human HEK293 cells at 25 ug/mL after 24 hrs by MTT assay; format: functional
HEK293 [49] = assay: Cytotoxicity against human HEK293 cells at 2.5 ug/mL after 72 hrs by MTT assay; format: functional
HEK293 [50] = assay: Cytotoxicity against human HEK293 cells at 25 ug/mL after 96 hrs by MTT assay; format: functional
[51] = Cytotoxicity against monkey GMK cells at 25 ug/mL after 48 hrs by MTT assay; format: functional, Chlorocebus aethiops
HEK293 [52] = assay: Cytotoxicity against human HEK293 cells at 200 ug/mL after 48 hrs by MTT assay; format: functional
Echovirus E9 [53] = assay: Antiviral activity against Human echovirus 9 in GMK cells assessed as virus titre at 100 ug/mL after 1 hr; format: functional
[54] = Cytotoxicity against monkey GMK cells at 10 ug/mL after 72 hrs by MTT assay; format: functional, Chlorocebus aethiops
HEK293 [55] = assay: Cytotoxicity against human HEK293 cells at 50 ug/mL after 72 hrs by MTT assay; format: functional
Human adenovirus 5 [56] = assay: Antiviral activity against Human adenovirus 5 in HEK293 cells assessed as virus titre at 50 ug/mL after 1 hr; format: functional
[57] = Cytotoxicity against monkey GMK cells at 10 ug/mL after 96 hrs by MTT assay; format: functional, Chlorocebus aethiops

## CCOC(=O)CC1NN=C2N(CCN2c2ccc(Cl)cc2)C1=O (configuration not stated)
HEK293 [1]
  Activity: 100%
HEK293 [2]
  Activity: 100%
[3]
  Activity: 95%
[4]
  Activity: 100%
[5]
  Activity: 100%
HEK293 [6]
  Activity: 100%
HEK293 [7]
  Activity: 100%
[8]
  Activity: 100%
[9]
  Activity: 95%
HEK293 [10]
  Activity: 20%
HEK293 [11]
  Activity: 100%
[12]
  Activity: 100%
[13]
  Activity: 100%
[14]
  Activity: 100%
[15]
  Activity: 100%
HEK293 [16]
  Activity: 90%
HEK293 [17]
  Activity: 50%
[18]
  Activity: 100%
Human adenovirus 5 [19]
  TCID50: 3.5 mL⁻¹
HEK293 [20]
  Activity: 25%
HEK293 [21]
  Activity: 100%
[22]
  Activity: 100%
[23]
  Activity: 100%
HEK293 [24]
  Activity: 100%
HEK293 [25]
  Activity: 100%
[26]
  Activity: 100%
Echovirus E9 [27]
  TCID50: 3.5 mL⁻¹
HEK293 [28]
  Activity: 100%
[29]
  Activity: 100%
[30]
  Activity: 100%
HEK293 [31]
  Activity: 100%
[32]
  Activity: 100%
HEK293 [33]
  Activity: 100%
HEK293 [34]
  Activity: 100%
[35]
  Activity: 100%
[36]
  Activity: 100%
HEK293 [37]
  Activity: 100%
HEK293 [38]
  Activity: 100%
HEK293 [39]
  Activity: 100%
[40]
  Activity: 100%
[41]
  Activity: 100%
HEK293 [42]
  Activity: 25%
HEK293 [43]
  Activity: 100%
[44]
  Activity: 100%
HEK293 [45]
  Activity: 100%
[46]
  Activity: 100%
[47]
  Activity: 100%
HEK293 [48]
  Activity: 100%
HEK293 [49]
  Activity: 100%
HEK293 [50]
  Activity: 100%
[51]
  Activity: 100%
HEK293 [52]
  Activity: 30%
Echovirus E9 [53]
  TCID50: 3.67 mL⁻¹
[54]
  Activity: 100%
HEK293 [55]
  Activity: 100%
Human adenovirus 5 [56]
  TCID50: 3.5 mL⁻¹
[57]
  Activity: 100%
